Our source for the IC50 values is US20210363152A1, “AMINOAZINE AMIDES” (Hoffmann-La Roche Inc., priority 2018, published 2021).

SMILES strings stand for the structures. Where only a bound is given, the exact number is not on record here.

This test addresses T1, Autotaxin enzyme (ATX) (Homo sapiens, UniProt Q13822).
T1 construct: purchased Echelon Biosciences, Inc. E-4000
Nature of the test: In vitro ATX assay (enzymatic ATX inhibition, LPC 14:0 substrate, choline oxidase/HRP absorbance readout). Format: biochemical. The conditions noted are these: 0.3 mM LPC 14:0, 37° C., 4 hours, absorbance 555 nm. The method, then: • Assay buffer: 100 mM Tris-HCl, pH 9.0, 500 mM NaCl, 5 mM MgCl2, 30 μM CoCl2, 0.05% Triton X-100 • Assay buffer II: 4.5 mM 4-AAP, 2.7 mM TOOS, 21.2 U/mL HRP, 3 U/mL CO, In 50 mM Tris-HCl pH 8.0, 4.5 mM MgCl2
A compound preparation plate (Nunc 249944) was prepared by adding 30 mM stock solution (in DMSO) of test compound and performing a serial full-log dilution down to 30 nM. Two μL/well were transferred from the first compound prep plate to a compound dilution plate (Corning, 3641) and 198 μL assay buffer I was added for a […].
A 10 ng/mL solution of ATX was prepared by diluting in assay buffer I, and 80 μL/well were added to the assay plate (Corning, 3641); negative control wells contained 80 μL/well assay buffer I only (no ATX). Ten μL/well from the compound dilution plate (containing serially diluted test compound or DMSO) were added to the assay plate, which was then incubated at 37° C. for 15 minutes. A solution of LPC 14:0 was prepared in assay buffer I at 3 mM and 10 μl/well were added to the assay plate, for a final concentration of 0.3 mM LPC, and returned to 37° C. incubator for 4 hours. After 4 hour incubation, 100 μL/well of assay buffer II was added to all wells of the assay plate. The plate was incubated at RT for 15 minutes, prior to reading on FlexStation in absorbance mode, 555 nm. Results in the enzymatic ATX inhibition assay are provided for compounds of formula (I). An IC50 value of “A” is less than 100 nM, “B” is equal to or greater than 100 nM but less than 1 μM, “C” is equal to or greater than 1 μM.

A word on the IC50: it is the concentration needed to halve the response being measured. Low values mean inhibition by little substance, high ones a need for much substance. In turn, `O=C(c1cnc(NCc2cc(OC(F)(F)F)cc(C3CC3)c2)nc1)N1CCCC12COC2` [Example 96, (2-((3-cyclopropyl-5-(trifluoromethoxy)benzyl)ami-no)pyrimidin-5-yl)(2-oxa-5-azaspiro[3.4]octan-5-yl)methanone] showed a half-maximal inhibitory concentration (IC50) of under 100 nM.

In the case of `O=C(c1cnc(NCc2cccc(OC(F)(F)F)c2)nc1)N1CCC12COC2` [Example 2], the IC50 lay in the range of 100 to 1000 nM.

The compound `CC(C)(O)C1CCN1C(=O)c1cnc(NCc2cc(C3CC3)cc(C3CC3)c2)nc1` (stereo not drawn) [Example 65] came in with an IC50 of under 100 nM.

The compound `O=C(c1cnc(NCc2cc(OC(F)(F)F)cc(C3CC3)c2)nc1)N1CCC12CCCOC2` (single isomer, unassigned) [Example 121, (2-((3-Cyclopropyl-5-(trifluoromethoxy)benzyl)amino)-pyrimidin-5-yl)(6-oxa-1-azaspiro[3.5]nonan-1-yl)methanone] displayed an IC50 of under 100 nM.

On to `CN1CC2(CCN2C(=O)c2cnc(NCc3cc(OC(F)(F)F)cc(C4CC4)c3)nc2)C1` [Example 142, (2-((3-Cyclopropyl-5-(trifluoromethoxy)benzyl)amino)pyrimidin-5-yl)(6-methyl-1,6-diazaspiro[3.3]heptan-1-yl)methanone], for which the IC50 is under 100 nM.

Compound `CC1CC(C)N1C(=O)c1cnc(NCc2cc(OC(F)(F)F)cc(C3CC3)c2)nc1` (stereo not drawn) [Example 93, (2-((3-cyclopropyl-5-(trifluoromethoxy)benzyl)ami-no)pyrimidin-5-yl)(2,4-dimethylazetidin-1-yl)methanone] displayed an IC50 of under 100 nM.

In the case of `O=C(c1cnc(NCc2cc(OC(F)(F)F)cc(C3CC3)c2)nc1)N1CCC12CNC2` [Example 141, (2-((3-Cyclopropyl-5-(trifluoromethoxy)benzyl)amino)pyrimidin-5-yl)(1,6-diazaspiro[3.3]heptan-1-yl)methanone], the IC50 is under 100 nM.

As for `CCc1ccc2c(c1)CC(Nc1ncc(C(=O)N3CCC34COC4)cn1)C2` (stereo not drawn) [Example 126, (2-((5-Ethyl-2,3-dihydro-1H-inden-2-yl)amino)pyrimidin-5-yl) (6-oxa-1-azaspiro[3.3]heptan-1-yl)methanone], the IC50 lay in the range of 100 to 1000 nM.

In the case of `O=C(c1cnc(NCc2cc(OC(F)(F)F)cc(C3CC3)c2)nc1)N1CCC12CN(C1CCC1)C2` [Example 144, (6-Cyclobutyl-1,6-diazaspiro[3.3]heptan-1-yl)(2-((3-cyclopropyl-5-(trifluoromethoxy)benzyl)amino)pyrimidin-5-yl)methanone], the IC50 is under 100 nM.

`O=C(c1cnc(NCc2cc(OC(F)(F)F)cc(C3CC3)c2)nc1)N1CCC12CN(CC(F)F)C2` [Example 149, (2-((3-Cyclopropyl-5-(trifluoromethoxy)benzyl)amino)pyrimidin-5-yl) (6-(2,2-difluoroethyl)-1,6-diazaspiro[3.3]heptan-1-yl)methanone]: the IC50 was under 100 nM.

For the compound `O=C(c1cnc(NCc2cccc(Cl)c2Cl)nc1)N1CCC12COC2` [Example 55], the IC50 was 100 to 1000 nM.

For `COCC1CN(C(=O)c2cnc(NCc3cc(OC(F)(F)F)cc(C4CC4)c3)nc2)C1` [Example 99, (2-((3-cyclopropyl-5-(trifluoromethoxy)benzyl)ami-no)pyrimidin-5-yl)(3-(methoxymethyl)azetidin-1-yl)methanone], the IC50 lay within 100 to 1000 nM.

In the case of `CC(C)c1cc(CNc2ncc(C(=O)N3CCC3C)cn2)cc(OC(F)(F)F)c1` (stereo not drawn) [Example 6], the IC50 was under 100 nM.

On to `N#Cc1cccc(CNc2ncc(C(=O)N3CCC34COC4)cn2)c1` [Example 14], for which the half-inhibitory concentration (IC50) was at least 1000 nM.

The compound `CC(C)Oc1cc(CNc2ncc(C(=O)N3CCC3C(C)(C)O)cn2)cc(C2CC2)c1` (stereo not drawn) [Example 59] showed an IC50 of under 100 nM.

As to `O=C(c1cnc(NCc2cc(Cl)cc(Cl)c2)nc1)N1CCC12COC2` [Example 50], the 50% inhibitory concentration (IC50) fell in the range of 100 to 1000 nM.

`O=C(c1cnc(NCc2cc(OC(F)(F)F)cc(C3CC3)c2)nc1)N1CC(F)(F)C1` [Example 86, (2-((3-cyclopropyl-5-(trifluoromethoxy)benzyl)ami-no)pyrimidin-5-yl)(3,3-difluroazetidin-1-yl)-methanone] yielded an IC50 of 100 to 1000 nM.

`O=C(c1cnc(NC2Cc3ccc(Cl)cc3C2)nc1)N1CCC12CS(=O)(=O)C2` (stereo not drawn) [Example 49] registered an IC50 of under 100 nM.

Compound `O=C(c1cnc(N[C@H]2Cc3ccc(Br)cc3C2)nc1)N1CCC12COC2` [Example 61] gave an IC50 of 100 to 1000 nM.

For the compound `CC(C)c1cc(CNc2ncc(C(=O)N3CCCC3)cn2)cc(OC(F)(F)F)c1` [Example 21], the IC50 is under 100 nM.

The compound `O=C(c1ccc(NC2Cc3ccc(Cl)cc3C2)nc1)N1CCC12COC2` (stereo not drawn) [Example 78, (6-((5-Chloro-2,3-dihydro-1H-inden-2-yl)amino)pyridin-3-yl)(6-oxa-1-azaspiro[3.3]heptan-1-yl)methanone] had an IC50 of 100 to 1000 nM.

`CN1CC2(CCCN2C(=O)c2cnc(NCc3cc(OC(F)(F)F)cc(C4CC4)c3)nc2)C1` [Example 157, (2-((3-Cyclopropyl-5-(trifluoromethoxy)benzyl)amino)pyrimidin-5-yl)(2-methyl-2,5-diazaspiro[3.4]octan-5-yl)methanone] returned a 50% inhibitory concentration (IC50) of under 100 nM.

For the compound `CC(Nc1ncc(C(=O)N2CCC23COC3)cn1)c1cccc(OC(F)(F)F)c1` (stereo not drawn) [Example 13], the IC50 is at least 1000 nM.

`O=C(c1cnc(NC2Cc3ccc(Cl)cc3C2)nc1)N1CCC1C(F)F` (stereo not drawn) [Example 45] displayed an IC50 of under 100 nM.

Turning to `COC[C@@H]1CCN1C(=O)c1cnc(NCc2cc(OC(F)(F)F)cc(C3CC3)c2)nc1` [Example 104, (S)-(2-((3-cyclopropyl-5-(trifluoromethoxy)benzyl)ami-no)pyrimidin-5-yl)(2-(methoxymethyl)azetidin-1-yl)methanone], the IC50 is under 100 nM.

Turning to `COc1cc(CNc2ncc(C(=O)N3CCC34COC4)cn2)cc(OC(F)(F)F)c1` [Example 30], the 50% inhibitory concentration (IC50) fell in the range of 100 to 1000 nM.

As for `N#Cc1cc(CNc2ncc(C(=O)N3CCC34COC4)cn2)cc(OC(F)(F)F)c1` [Example 139, 3-(((5-(6-Oxa-1-azaspiro[3.3]heptane-1-carbonyl)pyrimidin-2-yl)amino)methyl)-5-(trifluoromethoxy)benzonitrile], the 50% inhibitory concentration (IC50) was in the range of 100 to 1000 nM.

In turn, `CC(C)c1cc(CNc2ncc(C(=O)N3CCC34COC4)cn2)cc(OC(F)(F)F)c1` [Example 1, (2-((3-Isopropyl-5-(trifluoromethoxy)benzyl)amino)pyrimidin-5-yl) (6-oxa-1-azaspiro[3.3]heptan-1-yl)methanone] gave an IC50 of under 100 nM.

`CN(C)C1CN(C(=O)c2cnc(NCc3cc(OC(F)(F)F)cc(C4CC4)c3)nc2)C1` [Example 110, (2-((3-cyclopropyl-5-(trifluoromethoxy)benzyl)ami-no)pyrimidin-5-yl)(3-(dimethylamino)azetidin-1-yl)methanone] yielded an IC50 of 100 to 1000 nM.

As for `CCOc1cc(CNc2ncc(C(=O)N3CCC3C(C)(C)O)cn2)cc(OC(C)C)c1` (stereo not drawn) [Example 160, (2-((3-Ethoxy-5-isopropoxybenzyl)amino)pyrimidin-5-yl) (2-(2-hydroxypropan-2-yl)azetidin-1-yl)methanone], the IC50 was under 100 nM.

The compound `CC(C)c1cc(CNc2ccc(C(=O)N3CCC34COC4)cn2)cc(OC(F)(F)F)c1` [Example 76, (6-((3-Isopropyl-5-(trifluoromethoxy)benzyl)amino)pyridin-3-yl)(6-oxa-1-azaspiro[3.3]heptan-1-yl)methanone] displayed a half-inhibitory concentration (IC50) of under 100 nM.

For the compound `O=C(c1cnc(NCc2cc(OC(F)(F)F)cc(C3CC3)c2)nc1)N1CCC12CCOC2` (single isomer, unassigned) [Example 116, (2-((3-Cyclopropyl-5-(trifluoromethoxy)-benzyl)amino)pyrimidin-5-yl)(6-oxa-1-azaspiro[3.4]octan-1-yl) methanone], the IC50 was under 100 nM.

Compound `O=C(c1cnc(NCc2cccc(Cl)c2)nc1)N1CCC12COC2` [Example 15] yielded an IC50 of at least 1000 nM.

The compound `O=C(c1cnc(NCc2cc(OC(F)(F)F)cc(C3CC3)c2)nc1)N1CCc2ccncc21` [Example 98, (2-((3-cyclopropyl-5-(trifluoromethoxy)benzyl)ami-no)pyrimidin-5-yl)(2,3-dihydro-1H-pyrrolo[2,3-c]pyridin-1-yl)methanone] registered an IC50 of under 100 nM.

`CC(C)c1cc(CNc2ncc(C(=O)N3CCC3C)cn2)cc(OC(F)(F)F)c1` (single isomer, unassigned) [Example 70, (2-((3-Isopropyl-5-(trifluoromethoxy)benzyl)amino)pyrimidin-5-yl)(2-methylazetidin-1-yl)methanone]: the IC50 is under 100 nM.

The compound `O=C(c1cnc(NCc2cc(OC(F)(F)F)cc(C3CC3)c2)nc1)N1CCC12CCCOC2` (stereo not drawn) [Example 108, (2-((3-cyclopropyl-5-(trifluoromethoxy)benzyl)ami-no)pyrimidin-5-yl)(6-oxa-1-azaspiro[3.5]nonan-1-yl)-methanone] showed an IC50 of under 100 nM.
